In brackets after ≈: the same amount, converted by molar mass. Marks after values point to notes of the source that are not given here.
Experiments:
[1] = test system: Issatchenkia orientalis Kudrjanzev ATCC 6258; assay: MIC determination (broth micro-dilution); type: cell-based; conditions: Pichia kudriavzevii, ATCC6258
Protocol: (§1) Before analysis, compounds 5a–f were dissolved in 96% ethanol in a concentration of 2 mg/ml as stock solutions. Inoculums were prepared with fresh cultures of microbial strains, cultured on tryptic-soy agar or Sabouraud 2% (m/v) dextrose agar for 18 h (48–72 h for fungi) at 30 °C with physiological saline containing approximately […]. Inoculum density (0.5 McFarland units) was adjusted with a bio Mériex (France) densitometer. Minimum inhibitory concentration (MIC) was determined by the twofold micro-dilution method in Mu¨ller–Hinton broth for bacterial strains and RPMI 1640 + 2% m/v dextrose for fungi according to the EUCAST recommendations in a sterile 96-well flat-bottom plastic tissue culture plate. MIC was determined using a linear regression curve after incubation of compounds and reading the optical density at 570 nm using an iEMS microplate reader. […] All tests were performed in triplicate and expressed as the mean.

[2] = test system: Candida tropicalis ATCC 750; assay: MIC determination (broth micro-dilution); type: cell-based; conditions: ATCC750
Protocol: as §1

[3] = test system: Enterococcus faecalis ATCC 29212; assay: MIC determination (broth micro-dilution); type: cell-based; conditions: ATCC29212
Protocol: as §1

[4] = test system: Escherichia coli ATCC 10536; assay: MIC determination (broth micro-dilution); type: cell-based; conditions: ATCC10536
Protocol: as §1

[5] = test system: Candida albicans ATCC 90028; assay: MIC determination (broth micro-dilution); type: cell-based; conditions: ATCC90028
Protocol: as §1

[6] = test system: Kocuria rhizophila ATCC 9341; assay: MIC determination (broth micro-dilution); type: cell-based; conditions: ATCC9341
Protocol: as §1

[7] = test system: Pseudomonas aeruginosa ATCC 9027; assay: MIC determination (broth micro-dilution); type: cell-based; conditions: ATCC9027
Protocol: as §1

Candida kefyr ATCC 2512 = assay: MIC determination (broth micro-dilution); type: cell-based; conditions: Kluyveromyces marxianus, ATCC2512
Protocol: as §1

[8] = test system: Pseudomonas aeruginosa ATCC 27853; assay: MIC determination (broth micro-dilution); type: cell-based; conditions: ATCC27853
Protocol: as §1

[9] = test system: Burkholderia caepacia ATCC 25416; assay: MIC determination (broth micro-dilution); type: cell-based; conditions: ATCC25416
Protocol: as §1

[10] = test system: Candida parapsylosis ATCC 22019; assay: MIC determination (broth micro-dilution); type: cell-based; conditions: ATCC22019
Protocol: as §1

[11] = test system: Staphylococcus aureus ATCC 25923; assay: MIC determination (broth micro-dilution); type: cell-based; conditions: ATCC25923
Protocol: as §1

[12] = test system: Escherichia coli ATCC 8739; assay: MIC determination (broth micro-dilution); type: cell-based; conditions: ATCC8739
Protocol: as §1

[13] = test system: Staphylococcus aureus ATCC 6538; assay: MIC determination (broth micro-dilution); type: cell-based; conditions: ATCC6538
Protocol: as §1

[14] = test system: Staphylococcus aureus ATCC 25213; assay: MIC determination (broth micro-dilution); type: cell-based; conditions: ATCC25213
Protocol: as §1

[15] = test system: Aspergillus niger ATCC 16404; assay: MIC determination (broth micro-dilution); type: cell-based; conditions: ATCC16404
Protocol: as §1

[16] = test system: Candida krusei ATCC 14243; assay: MIC determination (broth micro-dilution); type: cell-based; conditions: Pichia kudriavzevii, ATCC14243
Protocol: as §1

[17] = test system: Bacillus subtilis ATCC 6633; assay: MIC determination (broth micro-dilution); type: cell-based; conditions: ATCC6633
Protocol: as §1

[18] = test system: Enterococcus hyrae ATCC 8043; assay: MIC determination (broth micro-dilution); type: cell-based; conditions: ATCC8043
Protocol: as §1

[19] = test system: Candida albicans ATCC 10231; assay: MIC determination (broth micro-dilution); type: cell-based; conditions: ATCC10231
Protocol: as §1

[20] = test system: Bacillus cereus ATCC 11778; assay: MIC determination (broth micro-dilution); type: cell-based; conditions: ATCC11778
Protocol: as §1

[21] = biological target: T1, soybean lipoxygenase (LOX) (Glycine max, UniProt P08170); assay: In vitro soybean lipoxygenase (LOX) inhibition; type: biochemical; conditions: sodium linoleate 0.1 mM, read-out: LOX inhibition (IC50 μM) ± SD
T1 construct: purchased Sigma-Aldrich
T1 sequence (P08170 1-839): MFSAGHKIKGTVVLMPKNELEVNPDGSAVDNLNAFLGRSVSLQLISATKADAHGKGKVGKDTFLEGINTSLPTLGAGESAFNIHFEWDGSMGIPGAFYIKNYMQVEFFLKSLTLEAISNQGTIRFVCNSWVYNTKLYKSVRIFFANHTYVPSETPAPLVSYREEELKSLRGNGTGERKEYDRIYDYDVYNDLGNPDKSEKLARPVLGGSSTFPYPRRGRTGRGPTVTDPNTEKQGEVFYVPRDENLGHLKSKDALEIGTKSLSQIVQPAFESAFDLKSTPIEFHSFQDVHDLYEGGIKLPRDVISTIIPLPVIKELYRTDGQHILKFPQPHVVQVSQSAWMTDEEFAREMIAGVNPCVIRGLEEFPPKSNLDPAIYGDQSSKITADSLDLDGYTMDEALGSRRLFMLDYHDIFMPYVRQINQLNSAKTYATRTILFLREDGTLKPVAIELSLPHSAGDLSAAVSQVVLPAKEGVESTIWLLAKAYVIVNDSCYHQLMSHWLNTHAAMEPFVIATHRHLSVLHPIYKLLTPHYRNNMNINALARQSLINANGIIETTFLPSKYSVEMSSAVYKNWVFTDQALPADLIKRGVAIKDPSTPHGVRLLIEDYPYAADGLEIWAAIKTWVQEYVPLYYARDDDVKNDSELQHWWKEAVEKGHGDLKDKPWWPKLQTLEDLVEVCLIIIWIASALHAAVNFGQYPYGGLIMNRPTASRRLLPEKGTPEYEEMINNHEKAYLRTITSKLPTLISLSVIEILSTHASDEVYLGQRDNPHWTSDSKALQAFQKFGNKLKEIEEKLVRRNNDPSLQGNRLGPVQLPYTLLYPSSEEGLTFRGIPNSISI
Protocol: In vitro LOX inhibition assay was accomplished as described previously. Test compounds (stock solutions 10 mM in DMSO) were incubated at room temperature with sodium linoleate (0.1 mM) and 0.2 ml of LOX solution (0.1 mg in 10 ml saline). Conversion of sodium linoleate to 13-hydroperoxylinoleic acid was measured at 234 nm and compared to the reference inhibitor. Several concentrations were used for IC50 determination.

[22] = Interaction with 1,1-diphenyl-2-picrylhydrazyl (DPPH); conditions: 100 μΜ
Protocol: To a solution of DPPH in absolute ethanol, an appropriate volume of the tested compound solution (0.1 mM final concentration) dissolved in DMSO was added. Absorbance was recorded at 517 nm after 20 and 60 min at room temperature (Lambda 20 double beam spectrophotometer, Perkin-Elmer, UK). Experiments were repeated at least in triplicate and the standard deviation of absorbance was less than 10% of the mean[10]. NDGA was used under the same experimental conditions as a reference compound.

MIC [1]: > 100 µg/mL
MIC [2]: > 100 µg/mL
MIC [3]: > 100 µg/mL
MIC [4]: 60 µg/mL (≈ 94.3 µM)
MIC [5]: > 100 µg/mL
MIC [6]: > 100 µg/mL
MIC [7]: 50 µg/mL (≈ 78.6 µM)
MIC (Candida kefyr ATCC 2512): > 100 µg/mL
MIC [8]: 25 µg/mL (≈ 39.3 µM)
MIC [9]: 70 µg/mL (≈ 110 µM)
MIC [10]: > 100 µg/mL
MIC [11]: > 100 µg/mL
MIC [12]: 60 µg/mL (≈ 94.3 µM)
MIC [13]: > 100 µg/mL
MIC [14]: > 100 µg/mL
MIC [15]: > 100 µg/mL
MIC [16]: > 100 µg/mL
MIC [17]: > 100 µg/mL
MIC [18]: > 100 µg/mL
MIC [19]: > 100 µg/mL
MIC [20]: > 100 µg/mL
IC50 [21]: 40 ± 1.5 µM
SMILES: COc1cc(NC(C)CCCNC(=O)NC(C(=O)NC(c2ccccc2)c2ccc(Cl)cc2)c2ccccc2)c2ncccc2c1 (stereo not drawn) [Compound 5c, N-[(4-chlorophenyl)(phenyl)methyl]-2-[({4-[(6-methoxyquinolin-8-yl)amino]pentyl}carbamoyl)amino]-2-phenylacetamide]
DPPH-reducing ability 20 min ([22]; 20 min): 2^b %
DPPH-reducing ability 60 min ([22]; 60 min): 2^b %
